Read-outs that look alike come from different tables or passages of the source.
Experiments:
[1] = biological target: T1, clathrin heavy chain NTD (amino acids 1–364) – amphiphysin 1 B/C domain protein–protein interaction (NTD‐PPI) (Homo sapiens, UniProt Q00610); parameters: method as in PMID 21816279, PMID 27853797; conditions: Figure 1, lead Pitstop 2 and earlier analogs; read-out: IC50 (clathrin NTD‐PPI inhibition); cited from earlier work
T1 construct: GST‐tagged clathrin heavy chain NTD (amino acids 1–364); made in house
T1 sequence (Q00610 1-364): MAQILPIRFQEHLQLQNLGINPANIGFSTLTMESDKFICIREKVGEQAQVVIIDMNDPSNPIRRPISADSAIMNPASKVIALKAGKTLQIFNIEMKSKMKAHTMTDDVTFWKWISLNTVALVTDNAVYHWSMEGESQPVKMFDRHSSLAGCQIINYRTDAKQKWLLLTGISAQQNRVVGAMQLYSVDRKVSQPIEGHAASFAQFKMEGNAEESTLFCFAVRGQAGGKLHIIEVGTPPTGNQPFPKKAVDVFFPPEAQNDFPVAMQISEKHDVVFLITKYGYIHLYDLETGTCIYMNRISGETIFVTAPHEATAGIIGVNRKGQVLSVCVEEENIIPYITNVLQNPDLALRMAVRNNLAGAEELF

[2] = biological target: T1, clathrin heavy chain NTD (amino acids 1–364) – amphiphysin 1 B/C domain protein–protein interaction (NTD‐PPI); assay: ELISA-based clathrin inhibitor binding assay (NTD-PPI)
Procedure, shortened: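 Binding is given relative to DMSO control, measured colorimetrically (HRP anti-GST, TMB) after compounds and GST-tagged clathrin heavy-chain NTD (1–364) were co-incubated 1 h at room temperature on immobilised His6-amphiphysin 1 B/C domain (250–578), in HEPES pH 7.4 buffer with 50 mM NaCl.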

[3] = biological target: T2, full length human Dynamin I (Homo sapiens, UniProt Q05193); assay: Dynamin GTPase activity, Malachite Green phosphate detection assay; type: biochemical; conditions: n = 1 or n = 2 as footnoted, read-out: Dynamin 1 IC50
T2 construct: full length human Dynamin I expressed in Sf21 insect cells; made in house; host or cells: Sf21 insect cells
T2 sequence (Q05193 1-864): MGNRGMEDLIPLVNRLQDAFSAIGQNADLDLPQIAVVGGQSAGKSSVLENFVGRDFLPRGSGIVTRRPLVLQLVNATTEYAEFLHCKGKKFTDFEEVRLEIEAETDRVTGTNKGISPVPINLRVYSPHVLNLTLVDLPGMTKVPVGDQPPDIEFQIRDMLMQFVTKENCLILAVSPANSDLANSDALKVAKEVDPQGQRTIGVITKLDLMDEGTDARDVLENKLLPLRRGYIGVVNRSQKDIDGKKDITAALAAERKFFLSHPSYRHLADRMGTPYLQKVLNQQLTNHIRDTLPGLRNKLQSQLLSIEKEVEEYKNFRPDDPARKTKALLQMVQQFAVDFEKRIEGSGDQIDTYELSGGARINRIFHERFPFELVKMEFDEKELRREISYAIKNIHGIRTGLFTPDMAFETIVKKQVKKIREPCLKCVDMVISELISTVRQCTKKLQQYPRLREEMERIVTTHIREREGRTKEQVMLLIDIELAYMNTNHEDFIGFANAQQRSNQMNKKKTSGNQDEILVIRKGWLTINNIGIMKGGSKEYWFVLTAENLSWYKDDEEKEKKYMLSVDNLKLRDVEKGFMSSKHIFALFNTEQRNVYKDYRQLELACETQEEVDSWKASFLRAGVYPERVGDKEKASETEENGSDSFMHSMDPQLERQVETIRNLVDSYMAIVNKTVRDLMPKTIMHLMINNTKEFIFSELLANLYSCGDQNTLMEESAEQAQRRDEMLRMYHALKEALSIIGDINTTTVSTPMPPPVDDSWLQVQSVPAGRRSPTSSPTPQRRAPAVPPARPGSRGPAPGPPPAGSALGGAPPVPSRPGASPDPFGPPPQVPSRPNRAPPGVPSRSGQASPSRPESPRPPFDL
Experimental: Dynamin GTPase activity was determined in vitro using the Malachite Green phosphate detection absorbance‐based assay within a 96‐well plate format as described previously. The enzyme source was full length human Dynamin I expressed in Sf21 insect cells and affinity‐purified on GST‐Amph2‐SH3 (rat Amphiphysin 2 (494–588)).^[ [56] ^]

[4] = tested on: transferrin uptake (CME) in U2OS osteosarcoma cells; assay: Clathrin-mediated endocytosis assay: transferrin (Tfn) uptake in U2OS cells; type: cell-based; conditions: Homo sapiens, U2OS
[5] = Qualitative solubility in solvents (compound data sheets, Supporting Information); type: physicochemical; conditions: solvents in which the compound dissolves

## O=C1N=C(NS(=O)(=O)c2cccc3ccccc23)S/C1=C\c1ccc(Br)cc1 [Pitstop 2, (Z)‐N‐(5‐(4‐bromenzylidene)‐4‐oxo‐4,5‐dihydrothiazol‐2‐yl)naphthalene‐1‐sulfonamide]
[1]
  IC50: 1.9 µM

## O=C1N=C(NS(=O)(=O)c2cccc(Cl)c2)S/C1=C\c1ccc(Br)cc1 [compound 2]
[1]
  IC50: 5.1 µM

## O=C1N=C(NS(=O)(=O)c2cccc3ccccc23)S/C1=C\c1cccc(O)c1O [compound 3]
[1]
  IC50: 3.5 µM

## O=C1N=C(NS(=O)(=O)c2cccc3ccccc23)S/C1=C\c1ccc2c(c1)CCO2 [compound 57, (Z)‐N‐(5‐((2,3‐dihydrobenzofuran‐5‐yl)methylene)‐4‐oxo‐4,5‐dihydrothiazol‐2‐yl)naphthalene‐1‐sulfonamide]
[2]; Table 4, library 4, ELISA, average of duplicate measurements (n = 2), read-out: NTD‐PPI IC50
  IC50: 3.27 µM
[2]; read-out: NTD‐PPI IC50 (ELISA)
  IC50: < 5 µM
[3]; Table 4, library 4, '–' = not active at 100 μM
  IC50: > 100 µM
[3]; Table 5, dynamin GTPase, NA = not active at 100 μM
  IC50: > 100 µM
[4]; Table 5, inhibition of transferrin‐red uptake in U2OS cells, '–'/NA = not active at 100 μM
  IC50: 58.1 ± 12.6 µM
[4]; U2OS cells
  IC50: > 50 µM
[5]
  Solubility: DM SO, slig htly soluble in ethyl acetate, aceton e, ethanol and methanol
